Test results reported in paper PMC4279419, “Angiostatic, tumor inflammatory and anti-tumor effects of CXCL4^47–70 and CXCL4L1^47–70 in an EGF-dependent breast cancer model” (Oncotarget, 2014).
Where no end group is shown, it is not given here.

Experiments:
EGF = EGF binding (heterodimerization) assay in 96-well plates; set-up: species or system human; settings: amino-terminally biotinylated peptides; 37 °C; 2 μg/ml EGF coated; OD450; n=3
Protocol: (§1) GAG, EGF and CCL5 binding were quantified in 96-well plates following a similar protocol. GAG binding was evaluated by immobilizing low molecular weight heparin (Iduron, Manchester, UK) on EpranEx plates (BD Biosciences), whereas EGF as well as CCL5 recombinant human protein (R&D Systems and PeproTech, respectively) was immobilized on high protein-binding ELISA plates (Corning life sciences, Tewksbury, MA). In brief, 25 μg/ml GAG [diluted in assay buffer 100 mM NaCl, 50 mM NaAc, pH 7.2, and 0.2% (v/v) Tween-20], 2 μg/ml EGF or 50 ng/ml CCL5 (both diluted in PBS), was coated overnight at room temperature on 96-well plates. Plates were washed three times with either assay buffer or 0.5% (v/v) Tween 20 in PBS and blocked at 37°C with buffer enriched with either 0.2% (w/v) gelatin (heparin binding assay) or 0.1% (w/v) casein (EGF or CCL5 binding assay). Subsequently, a dilution curve of biotinylated CXCL4L1^47–70 and CXCL4^47–70 peptide was pipetted on the plate and incubated at 37 °C to allow interaction with heparin, EGF or CCL5. After washing, retained biotinylated peptide was detected by peroxidase-conjugated streptavidin. Peroxidase activity was quantified by measuring the conversion of 3,3′,5,5′-tetramethylbenzidine (Sigma-Aldrich) at 450 nm.

[1] = tested on: bovine aortic endothelial cells (GM7373); assay: GM7373 proliferation assay (cell counting); assay type: cell-based; settings: peptide 0.4 μg/ml, 0.4% FCS, 24 h, cell counts, mean ± s.e.m., n=3; for GM7373 proliferation relative to EGF alone (100%): EGF 10 ng/ml; for GM7373 proliferation relative to FGF2 alone (100%): FGF2 10 ng/ml
Protocol: Cell proliferation assays on GM7373 cells were performed as described. Briefly, subconfluent cultures of GM7373 cells were seeded in 96-well dishes at 65 × 10^3 cells/cm^2. After 16 h, cells were incubated in triplicate in fresh medium containing 0.4% FCS plus FGF1 (30 ng/ml), FGF2 (10 ng/ml), FGF8 (30 ng/ml), EGF (10 ng/ml), VEGF (30 ng/ml), 12-O-tetradecanoyl phorbol 13-acetate (TPA, 10 ng/ml) or 10% FCS in the absence or in the presence of 400 ng/ml of CXCL4^47–70 or CXCL4L1^47–70. After 24 h, cells were trypsinized and counted in a Bürker chamber. Data were expressed as percentages of cell proliferation measured in the presence of the mitogenic stimulus alone.

endothelial cell = settings: cited from earlier work
Protocol: We investigated whether CXCL4^47–70 and CXCL4L1^47–70 counteracted other growth factors with similar efficiency. Consistent with previous work, both CXCL4^47–70 and CXCL4L1^47–70 (0.4 μg/ml) reduced FGF2-induced GM7373 prolifera ...

MDA-MB-231 cells = assay: MDA-MB-231 MTT proliferation assay; assay type: cell-based, human; settings: control PI=1, DMEM + 1% FCS, 3 to 4 days, mean ± s.e.m.
Protocol: First, HMVEC and HLEC were seeded at 5 × 10^3 cells/well in EBM-2 + 1% FCS in a 96-well plate, whereas MDA-MB-231 were starved of growth factors overnight by replacing their growth medium with DMEM (serum-free) prior to seeding the tumor cells at 15 × 10^2 cells/well in DMEM + 1% FCS. As for the rest of the assay, the same protocol applies to all cells. Once adherent, cells were incubated with different concentrations of the peptides CXCL4^47–70 and CXCL4L1^47–70 as single stimuli or in combination with recombinant human EGF (3 ng/ml; R&D Systems, Minneapolis, MN) at 37°C/5% CO2. All conditions were tested in triplicate or quadruplicate. After 3 to 4 days, stimulation medium was removed and a sterile MTT solution was added [0.04 g/100 ml thiazolyl blue (Sigma-Aldrich, St. Louis, MO) in 20% PBS/80% RPMI without phenol red (Lonza)] for 3 to 4 hours. The formed formasan crystals were dissolved by replacing the MTT solution with acidic propanol (0.04 M HCl, 0.1% (v/v) Nondet P-40 in absolute isopropanol) and shaking the plate, shielded from light, for 10 minutes. Optical density (OD) was determined at 570 nm and 630 nm. The obtained ODs were processed to proliferation indexes (PI), expressed relative to appropriate buffer controls, i.e. ΔOD570–630X over ΔOD570–630CO.

CHO/CXCR3B cells = assay: CXCR3B binding (flow cytometry); settings: NH2-terminally biotinylated peptides, 3 to 3000 ng/ml, data not shown
Excerpt: We further tried to reveal the mode of action of CXCL4^47–70 and CXCL4L1^47–70. First, we excluded that either peptide still binds/activates one of the CXCR3 isoforms, the receptors for intact CXCL4 and CXCL4L1.

CCL5 = CCL5 binding (heterodimerization) assay in 96-well plates; set-up: species or system human; settings: biotinylated peptides; 37 °C; 50 ng/ml CCL5 coated; OD450; n=3
Protocol: as §1

[2] = tested on: MDA-MB-231 breast tumors in SCID mice; assay: MDA-MB-231 tumor growth in SCID mice; assay type: in vivo; settings: 2.5 μg intratumoral 3×/week from day 3, mean ± s.e.m., n=10; for tumor volume (external), day 11 / mean tumor volume (external), day 25: calipers; for tumor volume (external), day 11: vehicle 176 ± 56, p<0.001 (CXCL4^47–70), p=0.007 (CXCL4L1^47–70); for mean tumor volume (external), day 25: vehicle 1116 ± 149, p=0.121 (CXCL4L1^47–70); for mean tumor volume (external), day 25 / resected tumor mass, day 27 or 28: p=0.002 (CXCL4^47–70); for resected tumor volume, day 27 or 28: vehicle 845 ± 177, p=0.001 (CXCL4^47–70), p=0.256 (CXCL4L1^47–70); for resected tumor mass, day 27 or 28: vehicle 1464 ± 277, p=0.091 (CXCL4L1^47–70)
Protocol: SCID mice were bred in specific-pathogen-free conditions in the Experimental Animal Breeding Facility of the University of Leuven (KU Leuven) and fed sterilized food and water. All animal experiments were conducted in agreement with the Ethical Committee for Animal Care and Use of the KU Leuven and executed under license number LA1210243. 7- to 10-week-old SCID mice were used throughout the experiments. MDA-MB-231 cells in log growth phase (6 × 10^6 cells resuspended in 200 μl of PBS) were injected subcutaneously (s.c.) on day 0 in the right dorsal flank. Animals were treated by intratumoral injection with control, 2.5 μg synthetic human CXCL4^47–70 peptide or synthetic human CXCL4L1^47–70 peptide three times a week starting from day 3. The external tumor volume was measured with calipers thrice a week and calculated using the formula (4πab2)/3 in which a and b are the largest and smallest radius, respectively. On day 27 or 28, mice were sacrificed and tumors were resected. The exact tumor volume of the resected tumor, based on three measured radii (a, b and c), was calculated by the formula (4πabc)/3. A portion of the tumors was stored at −70°C for generation of mRNA extracts and another part was processed for flow cytometry.

[3] = peptide 3 μg/ml, n=7 in triplicate, p<0.001
[4] = peptide 10 μg/ml, in triplicate, n=3, p<0.001 (CXCL4^47–70), n=7, p=0.01 (CXCL4L1^47–70)

Row | Substance | binding to EGF-coated plate (EGF) | GM7373 proliferation relative to EGF alone (100%) [1] [%] | GM7373 proliferation relative to FGF2 alone (100%) [1] [%] | block of FGF2-induced endothelial cell motility and proliferation (endothelial cell) | Proliferation index (PI) (MDA-MB-231 cells; peptide 0.3 μg/ml, n=7 in triplicate, p=0.023) | Proliferation index (PI) (MDA-MB-231 cells; [3]) | Proliferation index (PI) (MDA-MB-231 cells; [4]) | specific binding to CHO/CXCR3B (CHO/CXCR3B cells) | binding to CCL5-coated plate (CCL5) | tumor volume (external), day 11 [2] [mm^3] | mean tumor volume (external), day 25 [2] [mm^3] | resected tumor volume, day 27 or 28 [2] [mm^3] | resected tumor mass, day 27 or 28 [2] [mg] | Proliferation index (PI) (MDA-MB-231 cells; peptide 30 μg/ml, n=3 in triplicate, p<0.001)
1 | CXCL4^47–70: synthetic human carboxy-terminal peptide restricted to the last 24 amino acids of CXCL4, Fmoc chemistry (NGRKICLDLQAPLYKKIIKKLLES; not fully specified (N-terminus)) | equally well in a dose-dependent manner | 74 ± 3 | 28 ± 10 | retained the ability to block FGF2-induced endothelial cell motility and proliferation | 0.87 ± 0.04 | 0.66 ± 0.04 | 0.21 ± 0.05 | could not detect specific binding | directly and equally well interacted with CCL5 | 24 ± 6 | 438 ± 97 | 308 ± 61 | 523 ± 108 | 
2 | CXCL4L1^47–70: synthetic human carboxy-terminal peptide restricted to the last 24 amino acids of CXCL4L1, Fmoc chemistry | equally well in a dose-dependent manner | 49 ± 1 | 47 ± 4 | retained the ability to block FGF2-induced endothelial cell motility and proliferation |  | 0.78 ± 0.04 | 0.76 ± 0.08 | could not detect specific binding | directly and equally well interacted with CCL5 | 61 ± 23 | 719 ± 153 | 647 ± 161 | 953 ± 208 | 0.26 ± 0.04
